Measured values published in ChEMBL document CHEMBL4251601 (Eur J Med Chem, 2018).
Active and inactive are the calls of the source. The calls are words filed in the database; no cut-off is given here.

What was measured:
[1] = biological target: High affinity nerve growth factor receptor (Homo sapiens) (UniProt P04629); assay: Inhibition of recombinant human His-tagged TRKA cytoplasmic domain expressed in baculovirus expression system at 1 uM by Z'-Lyte assay relative to control
[2] = biological target: Serine/threonine-protein kinase 10 (Homo sapiens) (UniProt O94804); assay: Inhibition of LOK1 (unknown origin) at 0.1 uM by Z'-Lyte assay relative to control
Serine/threonine-protein kinase 10 (Homo sapiens), sequence (O94804 whole entry, looked up): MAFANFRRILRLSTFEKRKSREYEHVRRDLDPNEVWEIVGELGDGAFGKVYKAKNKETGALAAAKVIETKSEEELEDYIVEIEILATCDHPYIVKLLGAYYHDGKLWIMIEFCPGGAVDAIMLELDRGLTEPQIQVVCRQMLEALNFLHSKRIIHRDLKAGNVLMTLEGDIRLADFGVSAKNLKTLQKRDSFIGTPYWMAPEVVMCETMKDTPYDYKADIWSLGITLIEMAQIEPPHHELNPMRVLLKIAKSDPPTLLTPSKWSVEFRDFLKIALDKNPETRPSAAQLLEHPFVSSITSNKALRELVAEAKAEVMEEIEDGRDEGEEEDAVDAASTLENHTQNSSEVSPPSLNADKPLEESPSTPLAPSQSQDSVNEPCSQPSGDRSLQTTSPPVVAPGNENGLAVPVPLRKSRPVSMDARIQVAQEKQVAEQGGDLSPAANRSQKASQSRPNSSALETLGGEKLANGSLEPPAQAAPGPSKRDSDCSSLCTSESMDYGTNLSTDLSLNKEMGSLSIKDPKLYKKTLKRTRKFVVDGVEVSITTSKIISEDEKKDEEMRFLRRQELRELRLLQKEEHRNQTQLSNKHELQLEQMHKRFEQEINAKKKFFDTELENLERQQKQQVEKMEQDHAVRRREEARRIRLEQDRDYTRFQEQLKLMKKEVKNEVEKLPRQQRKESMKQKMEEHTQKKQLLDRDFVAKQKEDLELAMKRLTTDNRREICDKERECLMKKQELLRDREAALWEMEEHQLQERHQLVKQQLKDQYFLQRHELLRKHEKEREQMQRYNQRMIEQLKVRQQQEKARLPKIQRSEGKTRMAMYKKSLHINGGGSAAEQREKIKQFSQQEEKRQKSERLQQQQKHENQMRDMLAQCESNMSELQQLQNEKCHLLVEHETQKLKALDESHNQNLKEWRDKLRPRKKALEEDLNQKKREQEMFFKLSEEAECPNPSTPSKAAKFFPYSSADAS

[3] = Tmax in CD-1 mouse brain at 10 mg/kg, po administered as single dose by LC-MS/MS analysis; type: ADME, organism-based
[4] = biological target: Receptor tyrosine-protein kinase erbB-2 (Homo sapiens) (UniProt P04626); assay: Inhibition of recombinant human His-tagged ERBB2 cytoplasmic domain expressed in baculovirus expression system at 1 uM by Z'-Lyte assay relative to control
[5] = biological target: Mitogen-activated protein kinase kinase kinase 9 (Homo sapiens) (UniProt P80192); assay: Inhibition of recombinant human GST-tagged MLK1 expressed in baculovirus expression system at 1 uM by Z'-Lyte assay relative to control
[6] = biological target: Casein kinase II subunit alpha (Homo sapiens) (UniProt P68400); assay: Inhibition of recombinant full length human His-tagged CK2alpha1 expressed in baculovirus expression system at 0.1 uM by Z'-Lyte assay relative to control
[7] = biological target: Serine/threonine-protein kinase Chk1 (Homo sapiens) (UniProt O14757); assay: Inhibition of recombinant full length human His-tagged CHK1 expressed in baculovirus expression system at 1 uM by Z'-Lyte assay relative to control
[8] = biological target: Tyrosine-protein kinase ITK/TSK (Homo sapiens) (UniProt Q08881); assay: Inhibition of recombinant full length human GST-tagged ITK expressed in baculovirus expression system at 0.1 uM by TR-FRET assay relative to control
Tyrosine-protein kinase ITK/TSK (Homo sapiens), sequence (Q08881 whole entry): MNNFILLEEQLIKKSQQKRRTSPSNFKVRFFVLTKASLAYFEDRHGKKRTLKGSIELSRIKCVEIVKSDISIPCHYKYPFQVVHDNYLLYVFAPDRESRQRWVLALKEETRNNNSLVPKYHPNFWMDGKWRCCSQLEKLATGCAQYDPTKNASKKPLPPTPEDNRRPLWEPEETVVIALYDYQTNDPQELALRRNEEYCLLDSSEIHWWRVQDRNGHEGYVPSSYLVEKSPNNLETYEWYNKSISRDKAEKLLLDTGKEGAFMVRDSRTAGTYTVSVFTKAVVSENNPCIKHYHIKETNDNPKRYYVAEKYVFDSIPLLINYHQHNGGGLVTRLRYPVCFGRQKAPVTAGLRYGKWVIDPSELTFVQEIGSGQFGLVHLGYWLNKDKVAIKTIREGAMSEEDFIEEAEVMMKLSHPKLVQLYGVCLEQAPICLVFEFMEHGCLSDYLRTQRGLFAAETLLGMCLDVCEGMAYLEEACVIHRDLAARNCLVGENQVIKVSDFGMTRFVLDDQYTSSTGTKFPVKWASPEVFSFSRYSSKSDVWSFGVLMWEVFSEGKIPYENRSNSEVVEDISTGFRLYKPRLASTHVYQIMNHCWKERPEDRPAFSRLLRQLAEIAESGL

[9] = biological target: MAP kinase-activated protein kinase 2 (Homo sapiens) (UniProt P49137); assay: Inhibition of recombinant human full length His-tagged MK2 expressed in Escherichia coli at 0.1 uM by Z'-Lyte assay relative to control
MAP kinase-activated protein kinase 2 (Homo sapiens), sequence (P49137 whole entry, looked up, canonical isoform): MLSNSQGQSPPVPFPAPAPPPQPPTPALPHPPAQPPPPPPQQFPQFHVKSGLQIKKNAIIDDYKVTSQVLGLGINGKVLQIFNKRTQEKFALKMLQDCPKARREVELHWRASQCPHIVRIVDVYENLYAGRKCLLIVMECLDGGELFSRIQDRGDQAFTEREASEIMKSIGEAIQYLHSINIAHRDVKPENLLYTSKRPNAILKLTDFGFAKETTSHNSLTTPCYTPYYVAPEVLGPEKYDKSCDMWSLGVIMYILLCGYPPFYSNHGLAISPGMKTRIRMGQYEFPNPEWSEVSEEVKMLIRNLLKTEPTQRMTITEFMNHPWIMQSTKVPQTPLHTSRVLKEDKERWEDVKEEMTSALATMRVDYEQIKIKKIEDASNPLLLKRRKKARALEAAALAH

[10] = tested on: Epidermal growth factor receptor (Homo sapiens), P00533 [UNDEFINED MUTATION]; assay: Inhibition of recombinant human EGFR d746 to 750 deletion/T790M mutant at 0.1 uM by TR-FRET assay relative to control
[11] = AUC (0 to infinity) in CD-1 mouse brain at 10 mg/kg, po administered as single dose by LC-MS/MS analysis; type: ADME, organism-based; parameters: dose 10 mg/kg, time infinity, route oral; conditions: in vivo
[12] = biological target: Serine/threonine-protein kinase MARK1 (Homo sapiens) (UniProt Q9P0L2); assay: Inhibition of recombinant human full length GST-tagged MARK1 expressed in baculovirus expression system at 0.1 uM by Z'-Lyte assay relative to control
[13] = biological target: Serine/threonine-protein kinase TAO2 (Homo sapiens) (UniProt Q9UL54); assay: Inhibition of recombinant human GST-tagged TAOK2 expressed in baculovirus expression system at 1 uM by Z'-Lyte assay relative to control
Serine/threonine-protein kinase TAO2 (Homo sapiens), sequence (Q9UL54 whole entry, the tested form may be a part): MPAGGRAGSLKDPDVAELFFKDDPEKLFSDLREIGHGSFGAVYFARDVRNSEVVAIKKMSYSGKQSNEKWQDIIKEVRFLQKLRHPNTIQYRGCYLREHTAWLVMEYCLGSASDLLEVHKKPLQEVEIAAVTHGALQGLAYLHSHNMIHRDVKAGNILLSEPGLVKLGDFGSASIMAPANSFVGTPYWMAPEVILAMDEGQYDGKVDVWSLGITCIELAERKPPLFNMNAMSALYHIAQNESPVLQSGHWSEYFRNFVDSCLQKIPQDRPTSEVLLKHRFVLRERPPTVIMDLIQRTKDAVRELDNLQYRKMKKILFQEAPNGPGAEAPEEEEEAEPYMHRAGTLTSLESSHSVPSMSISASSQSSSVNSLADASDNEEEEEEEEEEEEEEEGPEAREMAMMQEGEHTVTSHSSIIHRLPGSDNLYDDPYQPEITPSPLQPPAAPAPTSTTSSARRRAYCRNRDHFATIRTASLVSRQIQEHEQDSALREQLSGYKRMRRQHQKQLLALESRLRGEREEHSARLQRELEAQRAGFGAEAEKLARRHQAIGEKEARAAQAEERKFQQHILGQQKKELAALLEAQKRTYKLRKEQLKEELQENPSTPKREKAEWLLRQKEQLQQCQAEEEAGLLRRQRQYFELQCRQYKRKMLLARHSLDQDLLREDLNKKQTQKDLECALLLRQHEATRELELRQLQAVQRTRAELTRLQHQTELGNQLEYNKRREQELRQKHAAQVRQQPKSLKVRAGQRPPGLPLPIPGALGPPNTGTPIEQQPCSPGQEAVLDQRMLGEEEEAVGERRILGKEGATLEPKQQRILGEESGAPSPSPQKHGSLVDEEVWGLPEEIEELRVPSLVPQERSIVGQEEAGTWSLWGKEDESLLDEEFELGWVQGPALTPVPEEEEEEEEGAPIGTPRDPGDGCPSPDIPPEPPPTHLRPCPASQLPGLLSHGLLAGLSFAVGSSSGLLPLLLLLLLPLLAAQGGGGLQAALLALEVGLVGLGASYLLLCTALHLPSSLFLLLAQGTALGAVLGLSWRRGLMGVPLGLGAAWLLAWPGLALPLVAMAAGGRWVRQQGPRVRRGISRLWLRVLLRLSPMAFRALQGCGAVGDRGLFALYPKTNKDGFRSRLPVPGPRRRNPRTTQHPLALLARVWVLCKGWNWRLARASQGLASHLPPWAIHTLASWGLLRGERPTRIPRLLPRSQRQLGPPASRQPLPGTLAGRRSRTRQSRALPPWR

[14] = biological target: Ephrin type-B receptor 2 (Homo sapiens) (UniProt P29323); assay: Inhibition of recombinant human GST-tagged EPHB2 cytoplasmic domain (616 to 884 residues) expressed in baculovirus expression system at 0.1 uM by Z'-Lyte assay relative to control
[15] = biological target: Mitogen-activated protein kinase 1 (Homo sapiens) (UniProt P28482); assay: Inhibition of recombinant human full length GST-tagged ERK2 expressed in Escherichia coli at 1 uM by Z'-Lyte assay relative to control
[16] = tested on: ALK tyrosine kinase receptor (Homo sapiens), Q9UM73 [L1196M]; assay: Inhibition of recombinant N-terminal GST-tagged human ALK cytoplasmic domain (1058 to 1620 residues) L1196M mutant expressed in baculovirus expression system at 1 uM by TR-FRET assay relative to control
ALK tyrosine kinase receptor (Homo sapiens), Q9UM73 [L1196M], sequence (Q9UM73 whole entry L1196M, looked up, the tested form may be a part): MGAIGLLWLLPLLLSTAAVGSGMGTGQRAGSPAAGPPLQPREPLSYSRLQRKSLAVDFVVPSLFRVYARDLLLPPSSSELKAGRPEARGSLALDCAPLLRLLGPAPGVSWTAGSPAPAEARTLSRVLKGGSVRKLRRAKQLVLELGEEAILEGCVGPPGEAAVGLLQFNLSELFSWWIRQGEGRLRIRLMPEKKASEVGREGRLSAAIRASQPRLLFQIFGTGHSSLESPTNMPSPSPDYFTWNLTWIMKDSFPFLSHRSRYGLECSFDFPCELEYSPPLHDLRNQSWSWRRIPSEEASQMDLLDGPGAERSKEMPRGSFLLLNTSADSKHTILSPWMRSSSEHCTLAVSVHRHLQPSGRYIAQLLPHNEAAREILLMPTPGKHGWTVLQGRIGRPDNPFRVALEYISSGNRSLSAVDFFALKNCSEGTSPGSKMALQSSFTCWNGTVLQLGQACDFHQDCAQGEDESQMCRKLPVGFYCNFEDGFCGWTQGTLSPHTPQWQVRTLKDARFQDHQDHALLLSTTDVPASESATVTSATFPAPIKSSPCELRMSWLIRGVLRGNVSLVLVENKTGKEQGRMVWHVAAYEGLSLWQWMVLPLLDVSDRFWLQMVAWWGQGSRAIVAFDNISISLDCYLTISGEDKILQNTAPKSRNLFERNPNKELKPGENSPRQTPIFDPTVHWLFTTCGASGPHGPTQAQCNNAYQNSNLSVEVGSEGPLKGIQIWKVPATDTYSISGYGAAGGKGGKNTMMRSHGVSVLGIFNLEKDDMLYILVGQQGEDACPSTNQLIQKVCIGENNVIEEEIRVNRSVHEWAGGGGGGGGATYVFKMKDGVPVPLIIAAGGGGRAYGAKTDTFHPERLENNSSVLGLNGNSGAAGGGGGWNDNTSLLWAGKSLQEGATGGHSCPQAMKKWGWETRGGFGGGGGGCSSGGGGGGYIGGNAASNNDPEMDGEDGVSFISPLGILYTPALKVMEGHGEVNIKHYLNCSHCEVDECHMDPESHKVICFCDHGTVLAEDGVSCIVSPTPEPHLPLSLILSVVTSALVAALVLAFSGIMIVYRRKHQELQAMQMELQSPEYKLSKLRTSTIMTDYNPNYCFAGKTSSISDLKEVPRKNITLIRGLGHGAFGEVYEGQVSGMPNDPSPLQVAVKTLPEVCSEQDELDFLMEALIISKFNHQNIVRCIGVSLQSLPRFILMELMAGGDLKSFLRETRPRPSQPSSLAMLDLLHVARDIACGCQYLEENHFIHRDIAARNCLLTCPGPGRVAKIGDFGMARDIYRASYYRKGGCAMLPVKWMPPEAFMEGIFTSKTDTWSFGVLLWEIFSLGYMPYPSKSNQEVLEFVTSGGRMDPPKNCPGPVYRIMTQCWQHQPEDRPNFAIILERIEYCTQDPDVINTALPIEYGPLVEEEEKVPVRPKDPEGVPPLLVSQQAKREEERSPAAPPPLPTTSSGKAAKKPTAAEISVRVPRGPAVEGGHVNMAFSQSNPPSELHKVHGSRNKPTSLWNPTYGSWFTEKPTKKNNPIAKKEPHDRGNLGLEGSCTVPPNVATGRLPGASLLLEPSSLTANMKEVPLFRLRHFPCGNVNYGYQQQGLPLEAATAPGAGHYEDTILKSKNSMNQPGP

U-87 MG [17] = assay: Antitumor activity against luciferase-fused human U87MG cells orthotopically xenografted in nude mouse assessed as increase in mouse life span at 25 mg/kg, po qd for 5 weeks relative to control; type: functional, U-87MG ATCC; conditions: 840 h
[18] = Unbound Cmax in CD-1 mouse brain at 10 mg/kg, po administered as single dose by LC-MS/MS analysis; type: ADME, organism-based; conditions: in vivo
[19] = biological target: Tyrosine-protein kinase JAK2 (Homo sapiens) (UniProt O60674); assay: Inhibition of recombinant human GST-tagged JAK2 expressed in baculovirus expression system at 0.1 uM by TR-FRET assay relative to control
[20] = biological target: Dual specificity protein kinase CLK1 (Homo sapiens) (UniProt P49759); assay: Inhibition of recombinant human GST-tagged CLK1 expressed in Escherichia coli at 1 uM by Z'-Lyte assay relative to control
[21] = biological target: MAP kinase-activated protein kinase 2 (Homo sapiens) (UniProt P49137); assay: Inhibition of recombinant human full length His-tagged MK2 expressed in Escherichia coli at 1 uM by Z'-Lyte assay relative to control
[22] = biological target: Phosphatidylinositol 4,5-bisphosphate 3-kinase catalytic subunit beta isoform (Homo sapiens) (UniProt P42338); assay: Inhibition of PI3K beta (unknown origin) at 0.1 uM by ADP-Glo assay relative to control
Mus musculus = assay: In vivo inhibition of CDK4/6 in nude mouse xenografted with human COLO205 cells assessed as reduction in Ser-780-phosphorylated Rb level in tumor at 100 mg/kg administered via oral gavage measured after 24 to 48 hrs by Western blot analysis; type: functional, organism-based
[23] = biological target: G protein-coupled receptor kinase 5 (Homo sapiens) (UniProt P34947); assay: Inhibition of recombinant human full length GST-tagged GRK5 expressed in baculovirus expression system at 0.1 uM by Z'-Lyte assay relative to control
U-87 MG [24] = assay: Antitumor activity against luciferase-fused human U87MG cells orthotopically xenografted in nude mouse assessed as increase in mouse life span at 6.25 mg/kg, po qd for 5 weeks relative to control; type: functional, U-87MG ATCC; conditions: 840 h
[25] = biological target: Tyrosine-protein kinase Srms (Homo sapiens) (UniProt Q9H3Y6); assay: Inhibition of recombinant human full length GST-tagged SRMS expressed in baculovirus expression system at 0.1 uM by TR-FRET assay relative to control
[26] = biological target: ALK tyrosine kinase receptor (Homo sapiens) (UniProt Q9UM73); assay: Inhibition of recombinant N-terminal GST-tagged human ALK cytoplasmic domain (1058 to 1620 residues) expressed in baculovirus expression system at 0.1 uM by TR-FRET assay relative to control
[27] = biological target: Tyrosine-protein kinase BTK (Homo sapiens) (UniProt Q06187); assay: Inhibition of recombinant full length human His-tagged BTK expressed in baculovirus expression system at 0.1 uM by TR-FRET assay relative to control
[28] = biological target: cAMP-dependent protein kinase catalytic subunit alpha (Homo sapiens) (UniProt P17612); assay: Inhibition of recombinant human His-tagged PKA expressed in Escherichia coli at 0.1 uM by Z'-Lyte assay relative to control
[29] = Cmax in CD-1 mouse plasma at 10 mg/kg, po administered as single dose by LC-MS/MS analysis; type: ADME, organism-based; parameters: dose 10 mg/kg, route oral
[30] = biological target: Aurora kinase B (Homo sapiens) (UniProt Q96GD4); assay: Inhibition of recombinant full length human His-tagged AURKB expressed in baculovirus expression system at 1 uM by Z'-Lyte assay relative to control

With `CC1=Nc2c(F)cc(-c3nc(Nc4ccc(C5CCN(C)CC5)cn4)ncc3F)cc2C12CCCC2` [CROZBACICLIB] as the compound, how does the inhibition [1] read?
The inhibition was 48%.

And the inhibition [2]?
The inhibition was 11%.

And the Tmax [3]?
Its Tmax is 2 h.

And the inhibition [4]?
Its inhibition is 3%.

What about the inhibition [5] of the same compound?
Its inhibition is 59%.

And the inhibition [6]?
The inhibition was 5%.

What about the inhibition [7] of the same compound?
The inhibition was 0%.

And the inhibition [8]?
The inhibition was -8%.

What about the inhibition [9] of the same compound?
Its inhibition is 0%.

And the inhibition [10]?
Its inhibition is 26%.

What about the AUC [11] of the same compound?
Its AUC is 37438 ng·h/g.

And the inhibition [12]?
Its inhibition is 3%.

And the inhibition [13]?
The inhibition was 87%.

What about the inhibition [14] of the same compound?
Its inhibition is -8%.

What about the inhibition [15] of the same compound?
Its inhibition is 5%.

And the inhibition [16]?
Its inhibition is 34%.

And the ILS at 25 mg/kg (U-87 MG [17])?
Its ILS at 25 mg/kg is 103%.

What about the fCmax [18] of the same compound?
The fCmax was 1.03 ng/g.

What about the inhibition [19] of the same compound?
Its inhibition is 24%.

What about the inhibition [20] of the same compound?
The inhibition was 99%.

And the inhibition [21]?
The inhibition was -1%.

What about the inhibition [22] of the same compound?
Its inhibition is 0%.

What about the inhibition (Mus musculus) of the same compound?
The inhibition was “Active”.

What about the inhibition [23] of the same compound?
Its inhibition is -1%.

What about the ILS at 6.25 mg/kg (U-87 MG [24]) of the same compound?
Its ILS at 6.25 mg/kg is 45%.

What about the inhibition [25] of the same compound?
The inhibition was 20%.

And the inhibition [26]?
The inhibition was 7%.

And the inhibition [27]?
The inhibition was -9%.

What about the inhibition [28] of the same compound?
Its inhibition is 0%.

What about the Cmax [29] of the same compound?
The Cmax was 818 ng/mL.

And the inhibition [30]?
Its inhibition is 6%.
